Columns and labels:
K562 = assay: Growth inhibition of human K562 cells after 72 hrs by trypan blue assay; assay type: functional; conditions: K562, 72 h
HL-60 = assay: Growth inhibition of human HL60 cells after 72 hrs by trypan blue assay; assay type: functional; conditions: HL-60, 72 h

SMILES | GI50 (K562) | GI50 (HL-60)
CC(=O)O[C@H]1C/C(C)=C/[C@@H](O)/C=C(/CO)[C@H]2CC(C)(C)[C@]12O | > 100 µM | > 100 µM
CO[C@@H]1[C@H]2[C@H](O)O[C@@]3([C@@H](OC(C)=O)C/C(C)=C/[C@H]1O)[C@@H]2CC3(C)C | 12.3 µM | 8.5 µM
CC(=O)O[C@H]1C/C(C)=C/[C@@H](O)[C@H](O)[C@H]2[C@H](O)O[C@]13[C@@H]2CC3(C)C | 10.1 µM | 6.9 µM
